According to publication PMC8424372 (Journal of Pharmaceutical Analysis, 2020):
Where two headings read alike, the source gives them in different places.

Columns and labels:
[1] = format: in vivo, human; details: for Detection in human plasma: after oral Gumiganghwal-tang tablets at maximum daily dose (9.6 g); for Shape of plasma concentration-time profile: after oral Gumiganghwal-tang tablets (9.6 g), humans; for AUC(0-inf) / Cmax / Tmax / Vd/F / half-life: male, human, po, 9.6 g
[2] = Freeze-thaw stability in human plasma; format: in vitro ADME; details: −80 °C/25 °C, mean ± SD, n = 5, %

| SMILES | Detection in human plasma [1] | Freeze-thaw stability (3 cycles) ([2]; spiked conc. 2 ng/mL) [%] | Freeze-thaw stability (3 cycles) ([2]; spiked conc. 400 ng/mL) [%] | Shape of plasma concentration-time profile [1] | AUC(0-inf) ([1]; plasma) [ng·h/mL] | Cmax ([1]; plasma) [ng/mL] | Tmax ([1]; plasma) [h] | half-life ([1]; plasma) [h] | also measured |
| --- | --- | --- | --- | --- | --- | --- | --- | --- | --- |
| CC(C)=CCOc1c2occc2cc2ccc(=O)oc12 [Imperatorin, imperatorin] | not detected | 98.44 ± 2.60 | 101.28 ± 2.93 | – | – | – | – | – | – |
| O=C(O)[C@H]1O[C@@H](Oc2cc3oc(-c4ccccc4)cc(=O)c3c(O)c2O)[C@H](O)[C@@H](O)[C@@H]1O [Baicalin, baicalin] | – | 99.53 ± 2.03 | 97.95 ± 3.22 | double peaks | – | – | – | – | AUC(0-inf) ([1]; in vivo): 805000 ± 121000 ng·h/mL; Cmax ([1]; in vivo): 34300 ± 5220 ng/mL; Tmax ([1]; in vivo): 7.99 ± 1.52 h; Vd/F ([1]; in vivo): 2.5 ± 0.21 L; half-life ([1]; in vivo): 14.4 ± 3.98 h |
| OCC1=C[C@@H](O)[C@@H]2C=CO[C@@H](O[C@@H]3O[C@H](CO)[C@@H](O)[C@H](O)[C@H]3O)[C@H]12 [Aucubin, aucubin] | not detected | 97.78 ± 4.39 | – | – | – | – | – | – | Freeze-thaw stability (3 cycles) ([2]; spiked conc. 500 ng/mL): 100.15 ± 2.79% |
| O=c1cc(-c2ccccc2)oc2cc(O)c(O)c(O)c12 [Baicalein, baicalein] | – | 96.92 ± 5.31 | 100.00 ± 2.30 | double peaks | 540 ± 122 | 52.6 ± 21.2 | 0.78 ± 0.23 | 7.78 ± 1.91 | – |
| CC1(C)O[C@H]1COc1c2ccoc2cc2oc(=O)ccc12 [Oxypeucedanin, oxypeucedanin] | – | 100.16 ± 1.88 | 99.31 ± 2.36 | double peaks | 449 ± 103 | 4.46 ± 1.29 | 8.25 ± 2.07 | 70.5 ± 10.6 | Vd/F ([1]; plasma): 275 ± 56.4 L |
| OC[C@H]1O[C@@H](O[C@@H]2OC=C[C@H]3[C@H](O)[C@@H]4O[C@]4(CO)[C@@H]23)[C@H](O)[C@@H](O)[C@@H]1O [Catalpol, catalpol] | not detected | 101.28 ± 2.95 | – | – | – | – | – | – | Freeze-thaw stability (3 cycles) ([2]; spiked conc. 500 ng/mL): 100.03 ± 2.84% |
| CC1(C)[C@@H](O)CC[C@]2(C)[C@H]3C(=O)C=C4[C@@H]5C[C@@](C)(C(=O)O)CC[C@]5(C)CC[C@@]4(C)[C@]3(C)CC[C@@H]12 [18-beta-glycyrrhetinic acid] | – | – | – | double peaks | 988 ± 125 | 89.7 ± 14.4 | 6.42 ± 1.01 | 12.1 ± 2.28 | – |
| CC1(C)[C@@H](O[C@H]2O[C@H](C(=O)O)[C@@H](O)[C@H](O)[C@H]2O[C@@H]2O[C@H](C(=O)O)[C@@H](O)[C@H](O)[C@H]2O)CC[C@]2(C)[C@H]3C(=O)C=C4[C@@H]5C[C@@](C)(C(=O)O)CC[C@]5(C)CC[C@@]4(C)[C@]3(C)CC[C@@H]12 [Glycyrrhizin, glycyrrhizin] | – | 97.58 ± 4.38 | 99.43 ± 2.90 | double peaks | 67.6 ± 15.3 | 2.16 ± 1.04 | 8.04 ± 1.16 | 28.8 ± 4.24 | Vd/F ([1]; plasma): 5860 ± 1090 L |
| O=c1ccc2cc3ccoc3c(O)c2o1 [Xanthotoxol, xanthotoxol] | – | 102.24 ± 4.31 | 98.83 ± 2.95 | double peaks | 110 ± 38.6 | 3.78 ± 1.39 | 4.48 ± 1.76 | 8.98 ± 3.01 | – |
| C=C1CCC[C@]2(C)C[C@]3(O)OC(=O)C(C)=C3C[C@@H]12 [Atractylenolide III, atractylenolide III] | – | 99.57 ± 2.04 | 96.73 ± 4.82 | double peaks | 417 ± 99.3 | 17.5 ± 5.6 | 4.33 ± 1.21 | 24.2 ± 5.29 | Vd/F ([1]; plasma): 26.2 ± 6.26 L |
| C=CCc1ccc(OC)c(OC)c1 [Methyl eugenol, methyl eugenol] | not detected | – | 101.10 ± 2.84 | – | – | – | – | – | Freeze-thaw stability (3 cycles) ([2]; spiked conc. 5 ng/mL): 98.48 ± 2.51% |
| CC(C)=CC(O)C/C(C)=C/COc1c2ccoc2cc2oc(=O)ccc12 (stereo not drawn) [Notopterol, notopterol] | not detected | 97.79 ± 3.42 | 99.46 ± 2.59 | – | – | – | – | – | – |
